System: Fibroblast L 929
Test: Cytotoxic effect of PDT on fibroblasts (MTT)
Type: cell-based
Settings: 100 μM photosensitiser, oxygen carrier, 20 min irradiation, MTT after 24 hours; hypochlorite 100 μL of 5.25%
Protocol: The experiment described below was performed to assess the cytotoxic effect of PDT in combination with two photosensitisers: […] Sodium hypochlorite is traditionally used to disinfect root canals. Fibroblast L 929 was used in this experiment. Approximately 3.2×10^5 cells were seeded in 4 cm diameter culture dishes in DMEM media supplemented with 10% FCS. Cells were grown by incubating at 37° C., in a carbon dioxide incubator for 24 hours. After the incubation period, 100 μL of ICG (1 mM) was added (the final concentration of ICG was 100 μM). 100 μL of oxygen carrier, perfluorodecahydro naphthalene,] was also added and irradiation was performed for 20 minutes (without shaking). The cells were left in the media for 24 hours under incubation. Later, the supernatant media was removed without disturbing the cell line. The cell layer was washed with 1 mL PBS twice. MTT (0.125 mg % in DMEM), as an indicator of the viable status of cells in the media was added to the Petri dish and incubated at 37° C., for 4 hours. The excess of dye was washed with PBS (2 mL). MTT formed in the Petri dish was extracted and added to 1 mL of DMSO. The optical density at 570 nm was measured. Sodium hypochlorite (100 μL of 5.25%) was used as a control in this experiment. All chemicals were purchased from Sigma Aldrich, St. Louis. Fibroblast L 929 was used in this experiment. […] The optical density at 570 nm was measured. […]

SMILES: CC1(C)C(/C=C/C=C/C=C/C=C2\N(CCCCS(=O)(=O)O)c3ccc4ccccc4c3C2(C)C)=[N+](CCCCS(=O)(=O)[O-])c2ccc3ccccc3c21 [ICG, Indocyanine Green]
- cytotoxicity (cells surviving after PDT, ranking): lesser cytotoxicity
